US10368545B2, “Substituted 2-thioimidazolylcarboxamides as pesticides” (BAYER CROPSCIENCE AKTIENGESELLSCHAFT, priority 2015, dated 2019)

Tests used:
[1] = log P by HPLC on reversed-phase C18 columns (OECD Guideline 117); assay type: physicochemical; conditions: for logP[a]: method [a]; for logP[b]: method [b]
Method in brief: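 Reversed-phase C18 HPLC per OECD 117, LC-MS with a linear 10% to 95% acetonitrile gradient. Acidic method at pH 2.7 with 0.1% formic acid; neutral method at pH 7.8 with 0.001 M ammonium hydrogencarbonate.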

[2] = system: southern root-knot nematode (Meloidogyne incognita); assay: Meloidogyne incognita test (gall formation on lettuce); assay type: in vivo; conditions: application rate 20 ppm; after 14 days
Method: Meloidogyne incognita Test
Solvent: 125.0 parts by weight of acetone
To produce a suitable preparation of active compound, 1 part by weight of active compound is mixed with the stated amount of solvent and the concentrate is diluted with water to the desired concentration.
Vessels are filled with sand, active compound solution, an egg/larvae suspension of the southern root-knot nematode (Meloidogyne incognita) and lettuce seeds. The lettuce seeds germinate and the plants develop. The galls develop on the roots.
After 14 days, the nematicidal efficacy in % is determined by the formation of galls. 100% means that no galls were found; 0% meant that the number of galls on the treated plants corresponds to the untreated control.

[3] = system: green peach aphid (Myzus persicae); assay: Myzus persicae spray test (Chinese cabbage leaf discs); assay type: in vivo; conditions: application rate 500 g/ha; after 5 or 6 days; Chinese cabbage leaf discs
Method in brief: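 Leaf discs bearing all aphid stages are sprayed with compound dissolved in acetone/DMF and diluted with water containing 1000 ppm emulsifier. Efficacy in % is scored after 5 or 6 days: 100% means all aphids killed, 0% none killed.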

[4] = system: green peach aphid (Myzus persicae); assay: Contrasting example: Myzus persicae spray test (MYZUPE); assay type: in vivo; conditions: MYZUPE, 100 g ai/ha, 6 dat
Method in brief: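 Chinese cabbage leaf discs carrying all stages of the aphid were sprayed with compound in acetone/dimethylformamide, diluted with water containing alkylaryl polyglycol ether emulsifier. After the set period, efficacy was scored as % of aphids killed (100% = all dead, 0% = none).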

[5] = system: larvae of the mustard beetle (Phaedon cochleariae); assay: Phaedon cochleariae spray test (Chinese cabbage leaf discs); assay type: in vivo; conditions: application rate 500 g/ha, after 7 days
Method: Phaedon cochleariae—Spray Test
(§1) Solvents: 78.0 parts by weight of acetone • • 1.5 parts by weight of dimethylformamide
(§2) Emulsifier: alkylaryl polyglycol ether
(§3) To produce a suitable active compound preparation, 1 part by weight of active compound is dissolved using the stated parts by weight of solvent and made up with water containing an emulsifier concentration of 1000 ppm until the desired concentration is attained. To produce further test concentrations, the preparation is diluted with emulsifier-containing water.
After 7 days, the efficacy in % is determined. 100% means that all beetle larvae were killed; 0% means that no beetle larvae were killed.

[6] = system: larvae of the mustard beetle (Phaedon cochleariae); assay: Contrasting example: Phaedon cochleariae spray test (PHAECO); assay type: in vivo; conditions: 500 g ai/ha, 7 dat
Method: Phaedon cochleariae—Spray Test (PHAECO)
as §1, §2, §3
After the desired period of time, the efficacy in % is determined. 100% means that all beetle larvae were killed; 0% means that no beetle larvae were killed.

logP[a] [1] | logP[b] [1] | SMILES | nematicidal efficacy (formation of galls) [2] [%] | efficacy (aphids killed) [3] [%] | % efficacy [4] [%] | efficacy (beetle larvae killed) [5] [%] | % efficacy [6] [%]
1.68 | 1.91 | CN(C(=O)c1cnc(SCc2ccccc2)n1C)c1cccnc1 [I-A-7] | 90 | 90 | 70 |  | 
2.16 | 2.29 | CN(C(=O)c1cnc([S+]([O-])c2ccc(Cl)c(C(F)(F)F)c2)n1C)c1cccnc1 (stereo not shown) [I-A-79] |  | 90 |  | 100 | 100

SMILES | logP[a] [1] | logP[b] [1] | nematicidal efficacy (formation of galls) [2] [%] | efficacy (aphids killed) [3] [%] | % efficacy [4] [%] | efficacy (beetle larvae killed) [5] [%] | % efficacy [6] [%]
CC(C)=CCSc1ncc(C(=O)N(C)c2cccnc2)n1C [I-A-35] | 1.61 | 1.96 | 90 |  |  |  | 
